Results reported in patent US4686231A, “Inhibition of 5-lipoxygenase products” (SmithKline Beckman Corporation, priority 1986, dated 1987).

What was measured:
[1] = test system: Arachidonic acid-induced ear swelling; experiment: Arachidonic acid-induced mouse ear inflammation (ear swelling); assay type: in vivo, male Balb/c mice; conditions: for antiinflammatory activity (mouse ear edema): p.o.
Description: In the following Examples male Balb/c mice (20-28 g) were used. All mice were obtained from Charles River Breeding Laboratories, Kingston, N.Y. Within a single experiment, mice were sex and age matched.
The compounds of Formula (I), indomethacin, naproxen, and ibuprofen were each used as the free base. The compounds were homogenized in 0.5% tagacanth. Compounds were administered by gavage at the indicated dose in a final volume of 10 ml/kg. The compounds of Formula (I) were solubilized in dimethylacetamide and diluted with olive oil for subcantaneous administration.
Arachidonic acid in acetone (2 mg/20 μl) was applied to the inner surface of the left ear. The thickness of both ears was then measured with a dial micrometer one hour after treatment, and the […] were expressed as the change in thickness (10^-3 cm) between treated and untreated ears.
Test compounds were given orally in 0.5% tragacanth at the times indicated in the text prior to the topical application of arachidonic acid.
Parenteral administration of compound was accomplished by subcutaneous injection of solution as indicated.

5-lipoxygenase [2] = target: T1, 5-lipoxygenase (Rattus norvegicus, UniProt P12527); experiment: 5-lipoxygenase activity: LTB4 production by RBL-1 high speed supernatant; assay type: biochemical; conditions: for IC50: RBL1 high speed supernatant, read-out: 5LO IC50 (LTB4 Production)
T1 construct: The activities of these enzymes in extracts of RBL-1 cells were assayed; host or cells: RBL-1 cells, supernatant of broken cell extract
T1 sequence (P12527 1-673): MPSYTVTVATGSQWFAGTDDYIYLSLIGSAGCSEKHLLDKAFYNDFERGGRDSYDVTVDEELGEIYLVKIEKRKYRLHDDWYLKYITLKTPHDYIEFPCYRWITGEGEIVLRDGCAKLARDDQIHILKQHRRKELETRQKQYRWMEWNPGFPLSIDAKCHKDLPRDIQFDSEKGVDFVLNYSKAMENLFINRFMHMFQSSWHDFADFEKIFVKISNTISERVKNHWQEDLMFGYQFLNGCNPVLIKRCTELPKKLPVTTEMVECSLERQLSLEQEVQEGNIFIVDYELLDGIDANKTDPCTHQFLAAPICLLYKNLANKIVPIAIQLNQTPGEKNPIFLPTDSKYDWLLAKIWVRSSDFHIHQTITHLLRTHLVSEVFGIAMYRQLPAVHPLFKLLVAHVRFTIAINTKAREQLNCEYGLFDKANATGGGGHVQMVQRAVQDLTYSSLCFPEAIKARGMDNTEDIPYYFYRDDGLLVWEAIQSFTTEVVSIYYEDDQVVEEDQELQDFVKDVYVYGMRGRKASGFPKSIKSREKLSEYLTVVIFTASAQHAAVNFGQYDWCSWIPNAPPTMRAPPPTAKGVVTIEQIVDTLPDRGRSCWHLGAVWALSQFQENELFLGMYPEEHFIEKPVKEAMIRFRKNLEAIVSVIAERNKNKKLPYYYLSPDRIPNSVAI
Description: (§1) For in vitro experiments, compounds were dissolved at appropriate concentrations in ethanol (final concentration μ1.0%) and then diluted to final concentrations using the buffers indicated in the text.
(§2) The activities of these enzymes in extracts of RBL-1 cells were assayed using the method of Jakschik and Lee, Nature, 287, 51-52 (1980). RBL-1 cells were obtained from the American Type Culture Collection (#CRL 1378) and were grown at 37° C. (5% CO2 in air) in spinner culture in MEM supplemented with 10% heat inactivated fetal calf serum. Harvested cells were washed with 50 mM sodium phosphate buffer, pH 7.0, containing 1 mM EDTA and 0.1% galatin, resuspended in fresh buffer (5×10^7 cells/ml) and disrupted by nitrogen cavitation using the Parr bomb at 750 psi for 10 min. The broken cell extract was then centrifuged at 10,000×g for 60 minutes (min). Aliquots (0.25 mls) of the supernatant were preincubated with or without drugs for 10 min, after which 10 μl CaCl2 (2 mM) of 2.5 mM arachidonic acid-1-^14 C (final concentration was […]; specific activity 20,000 dpm/nmole). After incubation for 5 min at […], the reaction was terminated by addition of 2 volumes (0.5 ml) ice cold acetone and the sample was allowed to deproteinize on ice for 10 min prior to centrifugation at 1,000×gfor 10 min. The deproteinized supernatant was adjusted to pH 3.5 with 2N formic acid and extracted with 2 volumes of ice cold ethyl acetate. The extracted samples were dried under argon, redissolved in ethyl acetate and applied to Whatman LK5D thin layer chromatography (TLC) plates which were developed using the A-9 solvent system [organic phase of ethyl acetate:2,2,5-trimethylpentane:acetic acid:water (110:50:20:10)] described by Hamberg and Samuelsson, J. Bio. Chem., 241, 257-263 (1966). Arachidonic acid, 5-HETE, LTB4 and PGD2 were quantified with a Berthold LB 2832 autoscanner.
(§3) Drug-induced effects on enzyme activities are described as the concentration of drug causing a 50% inhibition of metabolite synthesis (IC50).

5-lipoxygenase [3] = target: T1, 5-lipoxygenase; experiment: 5-lipoxygenase activity: 5-HETE production by RBL-1 high speed supernatant; assay type: biochemical; conditions: RBL1 high speed supernatant; read-out: 5LO IC50 (5-HETE Production)
Description: as §1, §2, §3

[4] = test system: area of infarction following coronary occlusion; conditions: dogs; cited from earlier work
[5] = test system: Arachidonic acid-induced ear swelling; experiment: Arachidonic acid-induced mouse ear inflammation (ear swelling); assay type: in vivo, male Balb/c mice
[6] = test system: LTC4 production by human monocytes; experiment: LTC4 production by human monocytes; assay type: cell-based; conditions: Monocyte, A23187-stimulated, 3 hours, drug added 30 minutes prior
Description: as §1
One of the compounds of Formula (I), i.e., Compound Number 8 from Table 1, was evaluated for its ability to inhibit the production of LTC4 by human monocytes according to the following protocol.
Human monocytes were prepared from whole blood supplied by the American Red Cross. The blood was fractionated by a two-step procedure employing sedimentation on Ficoll followed by sedimentation on Percoll. The mononuclear cell fraction recovered was composed of 80-90% monocytes with the remainder of the cells being predominant lymphocytes. The monocytes were plated at 1×10^6 cells per well in a Costar 24 well tissue culture plat and allowed to adhere for one hour at 37° C. Non-adherent cells were removed by washing. The cells were stimulated with […] of A23187 calcium ionophore for 3 hours at 37° C. to induce LTC-4 produced when drugs were evaluated. They were added to the cells 30 minutes prior to the A23187. Supernatants were collected, clarified by centrifugation and store frozed at -20° C. until assay. The LTC-4 content was determined by using a New England Nuclear Leukotriene C-4 (^3 H) RIA Kit as per instructions.

lipoxygenase = conditions: in vitro; cited from earlier work
psoriasis = conditions: in vivo; cited from earlier work
[7] = test system: LTB4 and 5-HETE production; conditions: in vitro; cited from earlier work
rheumatoid arthritis = conditions: preliminary observation; cited from earlier work
[8] = 50 mg/kg s.c. or i.p., 2 mg arachidonic acid, 1 hour, * p .05, ** p .01, *** p .001

IC50 (5-lipoxygenase [2]) [µM]	IC50 (5-lipoxygenase [3]) [µM]	SMILES	% Inhibition of Ear Swelling [1, 8] [%]	other results
13	13	COc1ccc(-c2nc(SC)n(C)c2-c2ccc(OC)cc2)cc1 [Compound 1]	51	
	95	Fc1ccc(-c2[nH]c(SC(F)(F)C(F)F)nc2-c2ccncc2)cc1 [Compound 9]		
		CC(C)Cc1ccc(C(C)C(=O)O)cc1 (centres unmarked) [ibuprofen, reference compound]		antiinflammatory activity (mouse ear edema) ([1]; 250 mg/kg): did not exhibit detectable antiinflammatory activity
6.6	16	O=S(=O)(c1nc(-c2ccc(F)cc2)c(-c2ccc(F)cc2)[nH]1)C(F)(F)C(F)F [Compound 2]	41	
10	10	Fc1ccc(-c2nc(-c3ccc(F)cc3)c(-c3ccc(F)cc3)[nH]2)cc1 [Compound 7]	15	
1	8	N#CNc1nc(-c2ccc(F)cc2)c(-c2ccc(F)cc2)[nH]1 [Compound 5, 4,5-Bis(4-fluorophenyl)-2-cyanamido-imidazole or 4,5-Bis(4-fluorophenyl)-2-amino-1-cyano-imidazole]	59	
		NC1=NN(c2cccc(C(F)(F)F)c2)CC1 [BW755-C]		area of infarction following coronary occlusion [4]: reduced
1.5	3.1	COc1ccc(-c2nc(NC#N)[nH]c2-c2ccc(OC)cc2)cc1 [Compound 4, 4,5-Bis(4-methoxyphenyl)-2-cyanamido-imidazole or 4,5-Bis(4-methoxyphenyl)-2-amino-1-cyano-imidazole]	46	
		COc1ccc2c(c1)c(CC(=O)O)c(C)n2C(=O)c1ccc(Cl)cc1 [indomethacin, reference compound]		antiinflammatory activity (mouse ear edema) ([1]; 10 mg/kg): did not exhibit detectable antiinflammatory activity; reduction of inflammation (mouse ear model) ([1]; arachidonic acid-induced): did not reduce inflammation or cell infiltration; inhibition of 5-lipoxygenase products (RBL-1 extract) (5-lipoxygenase [2]; concentrations up to 10^-4 M): inactive; reduction of cell infiltration (mouse ear model) [5]: did not reduce inflammation or cell infiltration
1.1	0.7	COc1ccc(-c2nc(C(F)(F)F)[nH]c2-c2ccc(OC)cc2)cc1 [Compound 6]		% Inhibition of Ear Swelling ([1]; 50 mg/kg, oral dosing (p.o.), ** p .01): 28%
1.5	17	Fc1ccc(-c2[nH]c(S)nc2-c2ccncc2)cc1 [Compound 8]		IC50 [6]: 0.8 µM
		COc1ccc2cc([C@H](C)C(=O)O)ccc2c1 [naproxen, reference compound]		antiinflammatory activity (mouse ear edema) ([1]; 100 mg/kg): did not exhibit detectable antiinflammatory activity
		CC(C(=O)O)c1ccc2oc(-c3ccc(Cl)cc3)nc2c1 (centres unmarked) [benoxaprofen]		lipoxygenase inhibitory activity (lipoxygenase): in vitro lipoxygenase inhibitory activity; effect on psoriasis (psoriasis): promising effect
		O=C(O)c1cc(/N=N/c2ccc(S(=O)(=O)Nc3ccccn3)cc2)ccc1O [sulfasalazine]		inhibition of LTB4 and 5-HETE production [7]: inhibit LTB4 and 5-HETE production in vitro; efficacy in rheumatoid arthritic patients (rheumatoid arthritis): efficacy, including remission
8.4	10.4	CCSc1nc(-c2ccc(OC)cc2)c(-c2ccc(OC)cc2)n1CC [Compound 3]		
